# Data reported in publication PMC1988858, “Nanosensor Detection of an Immunoregulatory Tryptophan Influx/Kynurenine Efflux Cycle” (PLoS Biology, 2007).
# Legend:
# COS-7 cells [1] = experiment: Perfusion ratio imaging of tryptophan uptake and exchange in COS-7 cells expressing FLIPW-CTYT (LAT1-like exchanger); format: cell-based; settings: for Effect on uptake rate of 100 μM L-tryptophan: COS-7, inhibitors at 5 mM; for Tryptophan export induced by extracellular tryptophan degradation product: tryptophan-preloaded COS-7 cells, DL-HK 200–1,000 μM; for Tryptophan export from the cytosol promoted by extracellular amino acid: COS-7 loaded with tryptophan, amino acid at 100 μM
# Method: (§1) Cells were cultured at 37 °C and 5% CO2.
# Ratio imaging was performed on an inverted fluorescence microscope (DM IRE2, Leica; http://www.leica.com) with a Quant EM digital camera (Photometrics; http://www.photomet.com) and 20× oil immersion, 63× water immersion lenses (HC PL APO 20×/0.7 or HCX PL APO, Leica). […] A Lambda DG4 (Sutter Instruments; http://www.sutter.com) provided excitation light. Images were acquired within the linear detection range of the camera and exposure times varied between 50 and 200 ms, depending on the expression level, with software binning between 2 and 3. Fluorescence intensities for eCFP and Venus were typically in the range of 6,000–8,000 and 12,000–16,000, respectively. Typical background values were around 1,000. Cells were perfused with Tyrode's buffer supplemented with ligands at flow rates of 1.0 ml/min in a vacuum chamber (Vacu-Cell VC-MPC-TW, C&L Instruments; http://www.fluorescence.com/) with a total volume of 0.1 ml. Buffers were exchanged using an eight-way automated ValveBank (AutoMate; http://www.autom8.com/). Inhibitors BCH and α-(methylamino)isobutyric acid (MeIAB) were used at 5 mM concentrations. For determination of the substrate specificity of tryptophan exchange, all 20 amino acids were tested at 100 μM concentrations.
# KB cells = experiment: Perfusion ratio imaging of LAT1-mediated tryptophan uptake and exchange in KB cells expressing FLIPW-CTYT; format: cell-based, human; settings: for Export of intracellular tryptophan upon perfusion (FRET ratio decrease): 100 μM L-His, 200 μM DL-K, 200 μM DL-HK, 1,000 μM HAA
# Method: as §1
# Ratio imaging was performed on an inverted fluorescence microscope (DM IRE2, Leica; http://www.leica.com) with a Quant EM digital camera (Photometrics; http://www.photomet.com) and 20× oil immersion, 63× water immersion lenses (HC PL APO 20×/0.7 or HCX PL APO, Leica). Dual emission intensity ratios were simultaneously recorded using a DualView with an OI-5-EM filter set (eCFP 480/30; eYFP 535/40; Optical Insights; http://www.optical-insights.com) and Slidebook 4.2 (Intelligent Imaging Innovations; http://www.intelligent-imaging.com/). A Lambda DG4 (Sutter Instruments; http://www.sutter.com) provided excitation light. Images were acquired within the linear detection range of the camera and exposure times varied between 50 and 200 ms, depending on the expression level, with software binning between 2 and 3. Fluorescence intensities for eCFP and Venus were typically in the range of 6,000–8,000 and 12,000–16,000, respectively. Typical background values were around 1,000. Cells were perfused with Tyrode's buffer supplemented with ligands at flow rates of 1.0 ml/min in a vacuum chamber (Vacu-Cell VC-MPC-TW, C&L Instruments; http://www.fluorescence.com/) with a total volume of 0.1 ml. Buffers were exchanged using an eight-way automated ValveBank (AutoMate; http://www.autom8.com/). Inhibitors BCH and α-(methylamino)isobutyric acid (MeIAB) were used at 5 mM concentrations. For determination of the substrate specificity of tryptophan exchange, all 20 amino acids were tested at 100 μM concentrations. Analyses were repeated at least three times with similar results.
# FLIPW-CTYT = biological target: T1, FLIPW-CTYT (Escherichia coli, UniProt P0A881); experiment: In vitro FRET ligand titration of FLIPW-CTYT; format: binding, E. coli; settings: for FLIPW-CTYT FRET response or interference with tryptophan binding: in vitro, unpublished data; for Kd: 20 mM MOPS pH 7.0
# T1 construct: made in house; host or cells: E. coli BL21(DE3)gold
# Method: (§2) The eCFP emission used for the ratio calculation was determined at 485 nm. Protein was diluted to give Venus readouts of 20,000–30,000 at a manual gain of between 70–75. By using the change in FRET ratio upon binding of ligand, affinity constants (K d) were determined by fitting the titration curves to a single-site binding isotherm: [drawing 1] with [L], ligand concentration; n, number of equal binding sites; R, ratio; R apo, ratio in the absence of ligand; and R sat, ratio at saturation with ligand. Three independent protein preparations were analyzed and each protein preparation was analyzed in triplicate.
# [2] = tested on: LAT1-like amino acid exchanger; experiment: Velocity of intracellular FLIPW-CTYT FRET response by single-cell imaging versus external L-tryptophan in COS-7 cells perfused with Tyrode's buffer, histidine as counterexchange substrate, Michaelis-Menten fit.; format: cell-based; settings: read-out: affinity of the cells for combined uptake and metabolism of tryptophan
# Method: Upon perfusion with 100 μM L-tryptophan, the FRET ratio increased instantaneously, corresponding to rising levels of cytosolic tryptophan. […] This way, cells could be repeatedly loaded with tryptophan and unloaded using histidine (Figure 4A). […] Na^+ independence and BCH sensitivity are characteristic of the transport properties of LAT1- and LAT2-like amino acid counterexchangers. […] LAT2 is expressed in the proximal tubule of the kidney, so it might be expressed in COS-7 cells. In addition, LAT1 is expressed in various human tumor cell lines and, consequently, is likely to be present in COS-7 cells as well.
# According to the FRET theory, an increase in Venus signal is accompanied by a decrease in eCFP signal. Ratio defined as fluorescence intensity quotient obtained with emission filters 535/40 nm over 480/30 nm. […] Error bars indicate standard deviation. […]
# Ratio imaging was performed on an inverted fluorescence microscope (DM IRE2, Leica; http://www.leica.com) with a Quant EM digital camera (Photometrics; http://www.photomet.com) and 20× oil immersion, 63× water immersion lenses (HC PL APO 20×/0.7 or HCX PL APO, Leica). Dual emission intensity ratios were simultaneously recorded using a DualView with an OI-5-EM filter set (eCFP 480/30; eYFP 535/40; Optical Insights; http://www.optical-insights.com) and Slidebook 4.2 (Intelligent Imaging Innovations; http://www.intelligent-imaging.com/). […]
# LAT1 = biological target: T2, LAT1 (Homo sapiens, UniProt Q01650); experiment: Velocity of intracellular FLIPW-CTYT FRET response by single-cell imaging versus external L-tryptophan in human KB cells perfused with Tyrode's buffer, histidine as counterexchange substrate, Michaelis-Menten fit.; format: cell-based; settings: read-out: affinity of KB cells for combined tryptophan uptake and metabolism under perfusion conditions
# T2 construct: gene SLC7A5; endogenous transporter of KB cells expressing cytosolic FLIPW-CTYT sensor
# T2 sequence (Q01650 whole entry, the tested form may be a part): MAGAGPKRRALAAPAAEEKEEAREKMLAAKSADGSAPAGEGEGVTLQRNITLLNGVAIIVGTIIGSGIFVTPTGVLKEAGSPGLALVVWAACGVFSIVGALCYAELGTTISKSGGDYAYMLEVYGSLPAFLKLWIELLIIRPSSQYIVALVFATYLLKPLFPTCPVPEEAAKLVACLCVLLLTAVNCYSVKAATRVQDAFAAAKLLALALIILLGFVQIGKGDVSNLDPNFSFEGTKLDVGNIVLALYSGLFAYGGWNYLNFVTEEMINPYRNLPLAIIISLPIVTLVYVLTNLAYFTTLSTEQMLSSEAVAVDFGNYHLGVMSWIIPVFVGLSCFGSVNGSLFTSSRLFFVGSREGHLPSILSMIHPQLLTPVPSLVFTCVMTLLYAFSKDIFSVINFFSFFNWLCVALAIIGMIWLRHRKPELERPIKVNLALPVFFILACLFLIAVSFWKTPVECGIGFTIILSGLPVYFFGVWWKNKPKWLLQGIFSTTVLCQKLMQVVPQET
# T2 sequence (P08195 103-630 partner): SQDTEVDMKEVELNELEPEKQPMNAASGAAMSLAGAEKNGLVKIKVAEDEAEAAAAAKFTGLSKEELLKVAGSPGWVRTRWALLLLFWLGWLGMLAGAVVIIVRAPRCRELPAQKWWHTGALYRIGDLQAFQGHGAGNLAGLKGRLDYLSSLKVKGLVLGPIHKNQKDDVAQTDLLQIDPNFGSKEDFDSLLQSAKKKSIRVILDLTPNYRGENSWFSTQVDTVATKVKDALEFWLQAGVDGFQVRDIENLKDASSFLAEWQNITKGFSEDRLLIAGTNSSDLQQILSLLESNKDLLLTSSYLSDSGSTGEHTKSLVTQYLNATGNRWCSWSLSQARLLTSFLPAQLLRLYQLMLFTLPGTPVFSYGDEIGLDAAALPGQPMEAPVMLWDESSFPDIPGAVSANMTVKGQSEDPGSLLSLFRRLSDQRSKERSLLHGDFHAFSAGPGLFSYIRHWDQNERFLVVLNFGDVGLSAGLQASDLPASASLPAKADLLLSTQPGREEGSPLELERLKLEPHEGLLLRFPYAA
# Method: KB cells originate from a human oral squamous cell carcinoma and express only LAT1 for uptake of neutral amino acids as shown by reverse-transcriptase (RT)-PCR [37] and RNA interference (RNAi).
# According to the FRET theory, an increase in Venus signal is accompanied by a decrease in eCFP signal. Ratio defined as fluorescence intensity quotient obtained with emission filters 535/40 nm over 480/30 nm. (B) Effect of 5 mM BCH inhibitor on the uptake rate of 100 μM L-tryptophan. Error bars indicate standard deviation. […] Error bars indicate standard deviation. […]
# Ratio imaging was performed on an inverted fluorescence microscope (DM IRE2, Leica; http://www.leica.com) with a Quant EM digital camera (Photometrics; http://www.photomet.com) and 20× oil immersion, 63× water immersion lenses (HC PL APO 20×/0.7 or HCX PL APO, Leica). Dual emission intensity ratios were simultaneously recorded using a DualView with an OI-5-EM filter set (eCFP 480/30; eYFP 535/40; Optical Insights; http://www.optical-insights.com) and Slidebook 4.2 (Intelligent Imaging Innovations; http://www.intelligent-imaging.com/). […] Fluorescence intensities for eCFP and Venus were typically in the range of 6,000–8,000 and 12,000–16,000, respectively. […]
# FLIPW-TCTY = biological target: T3, FLIPW-TCTY (Escherichia coli, UniProt P0A881); experiment: FRET ratio (528/485 nm, eCFP excitation 433 nm) titration of purified sensor with L-tryptophan in 20 mM MOPS, pH 7.0, fitted to a single-site binding isotherm.; settings: n = 3
# T3 construct: gene trpR
# Method: as §2
# FLIPW-CTY = biological target: T4, FLIPW-CTY (Escherichia coli, UniProt P0A881); experiment: In vitro FRET ligand titration of FLIPW-CTY; format: binding, E. coli; settings: for Kd: 20 mM MOPS pH 7.0, read-out: Affinity of FLIPW-CTY for tryptophan substrates
# T4 construct: made in house; host or cells: E. coli BL21(DE3)gold
# Method: as §2
# human LAT1 = tested on: human LAT1; set-up: method as in PMID 11557028; settings: LAT1 expressed in oocytes, static conditions; cited from earlier work
# COS-7 cells [3] = settings: read-out: Apparent affinity constant KM for combined transport and metabolism; COS-7, 96-well microplate, Tyrode's buffer
# Method: COS-7 cells were grown in Dulbecco's modified Eagle's medium (high glucose; DMEM, Gibco; http://www.invitrogen.com) with 10% fetal calf serum and 50 units (U)/ml penicillin and 50 μg/ml streptomycin (Gibco). […] Cells were cultured at 37 °C and 5% CO2. For imaging, cells were cultured in 8-well LabTekII German tissue culture glass slides (Nalge Nunc International; http://www.nalgenunc.com) and transiently transfected at 50%–70% confluence using Lipofectamine 2000 Reagent (Invitrogen) in Opti-MEM I reduced serum medium (Gibco). After transfection, cells were cultured for 16 h in Opti-MEM I followed by 3 h in growth medium prior to imaging.
# Adherent COS-7 cells in 96-well microplates were washed once with 100 μl Tyrode's buffer (119 mM NaCl, 2.5 mM KCl, 2 mM CaCl2, 2 mM MgCl2, 25 mM HEPES, 30 mM glucose, pH 7.3–7.4). The initial FRET ratio was measured by recording the eCFP and Venus emissions at 485 nm and 528 nm, respectively, after excitation of eCFP at 433 nm in a Safire monochromator microplate reader (Tecan). Standard deviation of the initial ratios was less than 10%. After addition of 100 μl tryptophan in Tyrode's buffer the FRET ratio was recorded with 2-min intervals for up to 2 h. Uptake rates were determined from linear parts in the initial FRET change and fitted with the nonlinear regression program Origin 6.1 (OriginLab; http://www.originlab.com).
compound,measurement,setting,value
"NC1(C(=O)O)CC2CCC1C2 (centres unmarked) [BCH, 2-aminobicyclo-(2,2,1)-heptane-2-carboxylic acid]",Effect on uptake rate of 100 μM L-tryptophan,COS-7 cells [1],decreased the uptake of tryptophan
same,Effect on LAT1-mediated uptake of 100 μM L-tryptophan,KB cells; 5 mM BCH,almost completely inhibited
"Nc1c(O)cccc1C(=O)O [HAA, hydroxy-anthranilic acid]",FLIPW-CTYT FRET response or interference with tryptophan binding,FLIPW-CTYT,did not result in a FLIPW-CTYT FRET response
same,Tryptophan export induced by extracellular tryptophan degradation product,COS-7 cells [1],did not result in tryptophan export
same,Export of intracellular tryptophan upon perfusion (FRET ratio decrease),KB cells,not
"Nc1c(O)cccc1C(=O)CC(N)C(=O)O (centres unmarked) [HK, 3-hydroxy-kynurenine]",FLIPW-CTYT FRET response or interference with tryptophan binding,FLIPW-CTYT,did not result in a FLIPW-CTYT FRET response
same,Tryptophan export induced by extracellular tryptophan degradation product,COS-7 cells [1],tryptophan export
same,Export of intracellular tryptophan upon perfusion (FRET ratio decrease),KB cells,exported
"Nc1ccccc1C(=O)CC(N)C(=O)O (centres unmarked) [K, kynurenine]",FLIPW-CTYT FRET response or interference with tryptophan binding,FLIPW-CTYT,did not result in a FLIPW-CTYT FRET response
same,Tryptophan export induced by extracellular tryptophan degradation product,COS-7 cells [1],tryptophan export
same,Export of intracellular tryptophan upon perfusion (FRET ratio decrease),KB cells,exported
N[C@@H](Cc1c[nH]cn1)C(=O)O [L-histidine],Tryptophan export from the cytosol promoted by extracellular amino acid,COS-7 cells [1],export of tryptophan from the cytosol
same,Export of intracellular tryptophan upon perfusion (FRET ratio decrease),KB cells,decreased
N[C@@H](Cc1c[nH]c2ccccc12)C(=O)O [L-tryptophan],Km,[2],2.6 µM
same,Km,LAT1,5.1 µM
same,Kd,FLIPW-TCTY,20 µM
CNC(C)(C)C(=O)O [N-(methylamino)isobutyric acid],Effect on uptake rate of 100 μM L-tryptophan,COS-7 cells [1],did not decrease uptake rates
"N[C@H](Cc1c[nH]c2ccccc12)C(=O)O [d-tryptophan, D-tryptophan]",Kd,FLIPW-CTYT,1280 ± 100 µM
same,Kd,FLIPW-CTY,3100 ± 300 µM
same,Concentration for decrease of FRET ratio relative to L-tryptophan,"FLIPW-CTY; titration of FLIPW-CTY, higher concentrations than L-tryptophan",about 5 fold
CC[C@H](C)[C@H](N)C(=O)O [isoleucine],Tryptophan export from the cytosol promoted by extracellular amino acid,COS-7 cells [1],able to promote tryptophan export
"N[C@@H](Cc1c[nH]c2ccc(O)cc12)C(=O)O [l-5-hydroxy-tryptophan, 5-hydroxy-L-tryptophan]",Kd,FLIPW-CTY,6000 ± 800 µM
"Cc1ccc2[nH]cc(C[C@H](N)C(=O)O)c2c1 [l-5-methyl-tryptophan, 5-methyl-L-tryptophan]",Kd,FLIPW-CTYT,25 ± 2 µM
same,Kd,FLIPW-CTY,60 ± 10 µM
"N[C@@H](Cc1c[nH]c2ccccc12)C(=O)O [l-tryptophan, L-tryptophan]",Kd,FLIPW-CTYT,100 ± 14 µM
same,Affinity of the cells for combined uptake and metabolism of tryptophan,"COS-7 cells [1]; COS-7, perfusion",2.6 ± 1.1 µM
same,Affinity for combined tryptophan uptake and metabolism,KB cells; perfusion conditions,5.1 ± 1.0 µM
same,Reported affinity of human LAT1 for tryptophan uptake,human LAT1,21 µM
same,Kd,FLIPW-CTY,220 ± 20 µM
same,Km,COS-7 cells [3],0.88 ± 0.27 µM
CC(C)C[C@H](N)C(=O)O [leucine],Tryptophan export from the cytosol promoted by extracellular amino acid,COS-7 cells [1],able to promote tryptophan export
CSCC[C@H](N)C(=O)O [methionine],Tryptophan export from the cytosol promoted by extracellular amino acid,COS-7 cells [1],able to promote tryptophan export
N[C@@H](Cc1ccccc1)C(=O)O [phenylalanine],Tryptophan export from the cytosol promoted by extracellular amino acid,COS-7 cells [1],able to promote tryptophan export
N[C@@H](Cc1ccc(O)cc1)C(=O)O [tyrosine],Tryptophan export from the cytosol promoted by extracellular amino acid,COS-7 cells [1],able to promote tryptophan export
CC(C)[C@H](N)C(=O)O [valine],Tryptophan export from the cytosol promoted by extracellular amino acid,COS-7 cells [1],able to promote tryptophan export
